Measured values: patent US20230042936A1, “PYRIDO[2,3-d]PYRIMIDIN-7(8H)-ONES AS CDK INHIBITORS” (PROSENESTAR LLC, priority 2020, published 2023)
Entries after “also recorded” stand apart in the source; their conditions may differ. Like-named read-outs stand apart in the source and are kept apart here.

Columns and labels:
AKT1 aa1-480 = biological target: T1, AKT1 aa1-480 (Homo sapiens, UniProt P31749); assay: Kinase profiling; type: biochemical; conditions: 10 semi-logarithmic dilutions from 50 μM, singlicate
T1 construct: AKT1 aa1-480

CDK1/CycA2 = CDK1/CycA2 (Homo sapiens, UniProt P06493); assay: Kinase profiling; type: biochemical; conditions: 10 semi-logarithmic dilutions from 50 μM, singlicate
CDK1/CycE1 = CDK1/CycE1 (Homo sapiens, UniProt P06493); assay: Kinase profiling; type: biochemical; conditions: 10 semi-logarithmic dilutions from 50 μM, singlicate
CDK12wt/CycK = CDK12wt/CycK (Homo sapiens, UniProt Q9NYV4); assay: Kinase profiling; type: biochemical; conditions: 10 semi-logarithmic dilutions from 50 μM, singlicate
CDK19/CycC = CDK19/CycC (Homo sapiens, UniProt Q9BWU1); assay: Kinase profiling; type: biochemical; conditions: 10 semi-logarithmic dilutions from 50 μM, singlicate
CDK3/CycE1 = CDK3/CycE1 (Homo sapiens, UniProt Q00526); assay: Kinase profiling; type: biochemical; conditions: 10 semi-logarithmic dilutions from 50 μM, singlicate
CDK4/CycD1 = CDK4/CycD1 (Homo sapiens, UniProt P11802); assay: Kinase profiling; type: biochemical; conditions: 10 semi-logarithmic dilutions from 50 μM, singlicate
CDK4/CycD3 = CDK4/CycD3 (Homo sapiens, UniProt P11802); assay: Kinase profiling; type: biochemical; conditions: 10 semi-logarithmic dilutions from 50 μM, singlicate
CDK5/p25NCK = CDK5/p25NCK (Homo sapiens, UniProt Q00535); assay: Kinase profiling; type: biochemical; conditions: 10 semi-logarithmic dilutions from 50 μM, singlicate
CDK5/p35NCK = CDK5/p35NCK (Homo sapiens, UniProt Q00535); assay: Kinase profiling; type: biochemical; conditions: 10 semi-logarithmic dilutions from 50 μM, singlicate
CDK6/CycD1 = CDK6/CycD1 (Homo sapiens, UniProt Q00534); assay: Kinase profiling; type: biochemical; conditions: 10 semi-logarithmic dilutions from 50 μM, singlicate
CDK6/CycD3 = CDK6/CycD3 (Homo sapiens, UniProt Q00534); assay: Kinase profiling; type: biochemical; conditions: 10 semi-logarithmic dilutions from 50 μM, singlicate
CDK9/CycT1 = CDK9/CycT1 (Homo sapiens, UniProt P50750); assay: Kinase profiling; type: biochemical; conditions: 10 semi-logarithmic dilutions from 50 μM, singlicate
PCTAIRE1/CycY = PCTAIRE1/CycY (Homo sapiens, UniProt Q00536); assay: Kinase profiling; type: biochemical; conditions: 10 semi-logarithmic dilutions from 50 μM, singlicate
[1] = test system: H460 lung carcinoma cell line; assay: Proliferation assay: determination of GI50; type: cell-based, human; conditions: Homo sapiens, NCI-H460; Table 3; 48 h; n = 2 independent experiments
How it was run: (§1)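 Rb-proficient U87MG, MDA-MB-231 and H460 and Rb-deficient SW1783, grown in DMEM or RPMI-1640 with 10% FBS, treated for 48 h. Cells fixed in 4% PFA, Hoechst 33342-stained and counted by high-content imaging (20×, 30 fields/well); GI50 taken as absolute IC50 from dose-response fit.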

[2] = test system: MDA-MB-231 breast carcinoma cell line; assay: Proliferation assay: determination of GI50; type: cell-based, human; conditions: Homo sapiens, MDA-MB-231
How it was run: as §1

[3] = test system: MDA-MB-468 breast carcinoma cell line (pRB mutant); assay: Proliferation assay: determination of GI50; type: cell-based; conditions: Homo sapiens, Table 4, n = 2, read-out: Growth inhibition GI50, Breast cancer pRB Mutant MDA-MB-468
Method: (§2) The following human tumor cell lines, all Retinoblastoma (Rb)-proficient, were used in this study: MDA-MB231 (breast cancer), MDA-MB453 (breast cancer), U87MG (glioblastoma) and H460 (lung cancer). MDA-MB468 (breast cancer) and SW1783 (glioblastoma) Rb-deficient cells were also included in the study, as well as the MCF10A non-transformed mammary epithelial cell line. Tumor cell lines were maintained in DMEM or RPMI-1640 medium, depending on the cell line, supplemented with 10% FBS. MCF10A cells were grown in complete mammary epithelial growth medium (MEGM, Lonza). Cell lines were authenticated by short tandem repeat (STR) loci profiling with the GenePrint® 10 System (Promega).
(§3) All human cancer cell lines (Table 2) were obtained from the American Type Culture Collection, and were maintained in DMEM (Hyclone) or RPMI-1640 medium (Sigma) supplemented with 10% fetal bovine serum (Sigma). Non-transformed MCF10 cell line was maintained in MEGM Mammary Epithelial Cell Growth Medium (Lonza). Immortalized mouse embryonic fibroblasts (MEFs) were maintained in DMEM with 10% fetal bovine serum.
(§4) 48 h later cells were fixed with PFA 4% for 15 minutes, stained with 10 μg/ml Hoechst 33342 (Molecular Probes, Thermo Fisher) for 30 minutes and washed twice with PBS. Cells were imaged in a high content screening system (Opera Phoenix™, Perkin Elmer) using a 20× dry objective (30 fields/well). Cell counts were determined by the Opera software (Perkin Elmer) and data were further processed with SPSS software. GI50 was calculated by estimating the absolute IC50 using dose-response inhibition tool in Prism6 (Graphpad Software Inc.).

[4] = test system: SW1783 glioblastoma cell line (pRB mutant); assay: Proliferation assay: determination of GI50; type: cell-based; conditions: Homo sapiens, Table 4, n = 4, read-out: Growth inhibition GI50, Glioblastoma pRB Mutant SW1783
Method: as §2, §3, §4

[5] = Kinetic solubility (pH 7.4); type: physicochemical; conditions: pH 7.4, aqueous buffer, kinetic from dmso stock
[6] = Metabolic stability in microsomes; type: in vitro ADME; conditions: human, 60-90 min test; for microsomal CLint: read-out: Metabolic stability, Human microsomes: Clearance; for half-life: read-out: Metabolic stability, Human microsomes: t1/2
[7] = Metabolic stability in microsomes; type: in vitro ADME; conditions: mouse, 60-90 min test; for microsomal CLint: read-out: Metabolic stability, Mouse microsomes: Clearance; for half-life: read-out: Metabolic stability, Mouse microsomes: t1/2
[8] = Permeability Caco-2 cells; type: in vitro ADME; conditions: human, Caco-2
Caco-2 cells = assay: Permeability Caco-2 cells; type: in vitro ADME
[9] = test system: human cancer cell lines (MDA-MB-231, U87-MG, H460) and MCF10; assay: Suppression of proliferation of human cancer cell lines, results in words; type: cell-based; conditions: summary of Table 3
Method: as §4
The cell growth inhibitions of the subject compounds were tested in multiple human cancer cell lines with wild-type Retinoblastoma protein: MDA-MB-231 (breast), U87-MG (glioblastoma), H460 (lung); and MCF10 (as an example of non-transformed human cells) and mutant cells.

[10] = Summary of solubility, metabolic stability and permeability
[11] = Table 3, 48 h, n = 3 independent experiments, read-out: GI50 MDA-MB231
[12] = Table 4, n = 4, read-out: Growth inhibition GI50, Breast cancer pRB Wild-Type MDA-MB-231

CDK9/CycT1, sequence (P50750 whole entry): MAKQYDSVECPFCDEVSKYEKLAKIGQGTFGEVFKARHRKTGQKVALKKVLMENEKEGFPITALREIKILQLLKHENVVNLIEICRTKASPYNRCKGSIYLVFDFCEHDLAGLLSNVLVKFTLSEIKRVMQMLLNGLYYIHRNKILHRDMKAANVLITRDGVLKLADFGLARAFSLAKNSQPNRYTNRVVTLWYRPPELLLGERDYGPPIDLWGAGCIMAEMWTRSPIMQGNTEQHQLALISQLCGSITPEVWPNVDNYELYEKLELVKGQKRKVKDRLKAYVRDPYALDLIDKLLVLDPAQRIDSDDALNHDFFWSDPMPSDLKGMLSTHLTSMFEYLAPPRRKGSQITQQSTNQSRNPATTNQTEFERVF
CDK9/CycT1, sequence (O60563 whole entry partner): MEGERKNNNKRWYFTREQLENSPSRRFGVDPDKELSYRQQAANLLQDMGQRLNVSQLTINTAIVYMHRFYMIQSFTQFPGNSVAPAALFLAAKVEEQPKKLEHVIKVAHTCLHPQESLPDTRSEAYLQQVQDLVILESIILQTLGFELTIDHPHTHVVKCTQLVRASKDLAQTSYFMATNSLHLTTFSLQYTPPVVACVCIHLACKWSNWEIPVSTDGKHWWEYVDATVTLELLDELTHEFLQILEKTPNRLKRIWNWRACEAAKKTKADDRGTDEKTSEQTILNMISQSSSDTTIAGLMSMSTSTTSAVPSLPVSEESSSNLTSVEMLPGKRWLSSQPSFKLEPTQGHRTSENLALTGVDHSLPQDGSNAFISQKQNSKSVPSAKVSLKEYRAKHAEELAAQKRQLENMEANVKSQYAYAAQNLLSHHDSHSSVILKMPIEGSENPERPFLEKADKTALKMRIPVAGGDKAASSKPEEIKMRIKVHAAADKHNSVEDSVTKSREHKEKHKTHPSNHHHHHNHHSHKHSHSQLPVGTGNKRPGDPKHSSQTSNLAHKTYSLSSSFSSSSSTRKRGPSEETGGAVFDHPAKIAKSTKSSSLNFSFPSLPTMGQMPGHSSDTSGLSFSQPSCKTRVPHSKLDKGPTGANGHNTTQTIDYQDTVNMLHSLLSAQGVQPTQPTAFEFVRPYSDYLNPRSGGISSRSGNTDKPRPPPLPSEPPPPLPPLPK
CDK5/p35NCK, sequence (Q00535 whole entry): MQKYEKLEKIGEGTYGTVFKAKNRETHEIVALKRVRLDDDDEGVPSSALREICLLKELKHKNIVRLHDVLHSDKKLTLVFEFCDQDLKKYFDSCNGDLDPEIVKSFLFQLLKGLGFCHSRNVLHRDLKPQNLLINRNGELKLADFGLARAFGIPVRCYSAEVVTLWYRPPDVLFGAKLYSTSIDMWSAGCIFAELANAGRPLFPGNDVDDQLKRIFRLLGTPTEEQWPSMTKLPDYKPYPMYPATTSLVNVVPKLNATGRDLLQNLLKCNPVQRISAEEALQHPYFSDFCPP
CDK5/p35NCK, sequence (Q15078 whole entry partner): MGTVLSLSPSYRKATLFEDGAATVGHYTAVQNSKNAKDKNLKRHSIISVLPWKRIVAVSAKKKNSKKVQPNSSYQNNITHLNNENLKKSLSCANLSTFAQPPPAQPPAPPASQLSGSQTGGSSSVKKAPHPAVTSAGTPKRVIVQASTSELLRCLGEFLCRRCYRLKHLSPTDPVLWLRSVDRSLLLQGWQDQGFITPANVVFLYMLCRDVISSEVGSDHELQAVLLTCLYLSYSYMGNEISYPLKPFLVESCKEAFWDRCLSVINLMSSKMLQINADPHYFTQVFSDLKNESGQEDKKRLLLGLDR
CDK5/p25NCK, sequence (Q00535 whole entry): as the sequence (Q00535 whole entry) above
CDK5/p25NCK, sequence (Q15078 99-307 partner limits assumed): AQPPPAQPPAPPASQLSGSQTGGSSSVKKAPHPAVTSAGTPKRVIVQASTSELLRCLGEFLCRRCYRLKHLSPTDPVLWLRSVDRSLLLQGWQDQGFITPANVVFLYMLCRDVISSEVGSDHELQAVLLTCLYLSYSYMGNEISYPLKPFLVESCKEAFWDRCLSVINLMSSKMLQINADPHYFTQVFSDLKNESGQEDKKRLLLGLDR
CDK1/CycA2, sequence (P06493 whole entry): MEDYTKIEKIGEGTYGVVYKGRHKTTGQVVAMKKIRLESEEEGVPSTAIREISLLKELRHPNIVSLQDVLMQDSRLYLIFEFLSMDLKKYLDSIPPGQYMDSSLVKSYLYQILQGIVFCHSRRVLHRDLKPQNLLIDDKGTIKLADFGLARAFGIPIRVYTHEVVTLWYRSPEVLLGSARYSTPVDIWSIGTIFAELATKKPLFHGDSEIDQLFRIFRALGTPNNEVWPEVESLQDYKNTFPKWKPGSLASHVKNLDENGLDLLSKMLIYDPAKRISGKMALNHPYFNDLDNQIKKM
CDK1/CycA2, sequence (P20248 whole entry partner): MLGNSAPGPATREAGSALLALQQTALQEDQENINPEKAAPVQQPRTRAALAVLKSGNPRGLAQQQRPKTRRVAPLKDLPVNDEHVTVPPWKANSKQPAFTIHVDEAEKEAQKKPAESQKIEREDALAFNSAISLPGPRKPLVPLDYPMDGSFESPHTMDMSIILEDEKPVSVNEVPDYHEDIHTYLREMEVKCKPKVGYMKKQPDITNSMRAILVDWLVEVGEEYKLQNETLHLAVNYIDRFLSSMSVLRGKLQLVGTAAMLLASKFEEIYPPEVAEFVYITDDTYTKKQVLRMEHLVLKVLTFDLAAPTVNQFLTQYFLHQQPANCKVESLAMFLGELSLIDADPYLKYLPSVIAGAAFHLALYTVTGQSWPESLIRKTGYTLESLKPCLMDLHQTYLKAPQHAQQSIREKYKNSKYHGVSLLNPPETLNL
CDK1/CycE1, sequence (P06493 whole entry): as the sequence (P06493 whole entry) above
CDK1/CycE1, sequence (P24864 whole entry partner): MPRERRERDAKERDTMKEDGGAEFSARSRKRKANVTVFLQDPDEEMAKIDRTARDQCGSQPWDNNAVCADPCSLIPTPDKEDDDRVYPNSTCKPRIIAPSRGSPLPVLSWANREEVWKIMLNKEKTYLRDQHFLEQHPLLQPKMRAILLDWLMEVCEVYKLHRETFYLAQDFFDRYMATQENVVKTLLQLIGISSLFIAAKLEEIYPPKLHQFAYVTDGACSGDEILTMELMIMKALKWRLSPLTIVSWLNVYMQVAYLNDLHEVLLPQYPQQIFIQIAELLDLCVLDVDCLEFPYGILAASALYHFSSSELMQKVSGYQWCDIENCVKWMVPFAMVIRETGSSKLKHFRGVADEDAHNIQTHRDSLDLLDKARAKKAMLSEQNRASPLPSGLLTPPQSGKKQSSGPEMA
CDK19/CycC, sequence (Q9BWU1 whole entry): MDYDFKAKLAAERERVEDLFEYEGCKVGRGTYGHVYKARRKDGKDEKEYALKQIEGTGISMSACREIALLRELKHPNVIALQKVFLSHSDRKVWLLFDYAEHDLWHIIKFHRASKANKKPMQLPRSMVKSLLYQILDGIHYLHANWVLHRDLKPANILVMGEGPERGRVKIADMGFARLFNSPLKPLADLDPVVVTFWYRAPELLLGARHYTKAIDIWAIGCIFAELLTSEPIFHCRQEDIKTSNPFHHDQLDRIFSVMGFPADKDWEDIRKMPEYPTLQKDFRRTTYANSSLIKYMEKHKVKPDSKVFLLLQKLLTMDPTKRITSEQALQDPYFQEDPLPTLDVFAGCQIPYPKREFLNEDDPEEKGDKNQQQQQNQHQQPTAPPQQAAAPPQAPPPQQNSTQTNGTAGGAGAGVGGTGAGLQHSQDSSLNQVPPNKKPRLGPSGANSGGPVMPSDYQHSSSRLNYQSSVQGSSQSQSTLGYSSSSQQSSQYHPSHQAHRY
CDK19/CycC, sequence (P24863 whole entry partner): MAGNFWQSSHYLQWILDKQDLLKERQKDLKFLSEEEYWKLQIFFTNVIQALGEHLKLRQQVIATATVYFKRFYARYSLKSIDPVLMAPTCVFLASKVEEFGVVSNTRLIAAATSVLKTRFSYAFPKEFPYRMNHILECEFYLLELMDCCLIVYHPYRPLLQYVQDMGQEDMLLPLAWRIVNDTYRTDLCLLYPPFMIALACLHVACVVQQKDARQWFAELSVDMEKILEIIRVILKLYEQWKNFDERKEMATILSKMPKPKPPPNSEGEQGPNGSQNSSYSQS
T1 sequence (P31749 whole entry, the tested form may be a part): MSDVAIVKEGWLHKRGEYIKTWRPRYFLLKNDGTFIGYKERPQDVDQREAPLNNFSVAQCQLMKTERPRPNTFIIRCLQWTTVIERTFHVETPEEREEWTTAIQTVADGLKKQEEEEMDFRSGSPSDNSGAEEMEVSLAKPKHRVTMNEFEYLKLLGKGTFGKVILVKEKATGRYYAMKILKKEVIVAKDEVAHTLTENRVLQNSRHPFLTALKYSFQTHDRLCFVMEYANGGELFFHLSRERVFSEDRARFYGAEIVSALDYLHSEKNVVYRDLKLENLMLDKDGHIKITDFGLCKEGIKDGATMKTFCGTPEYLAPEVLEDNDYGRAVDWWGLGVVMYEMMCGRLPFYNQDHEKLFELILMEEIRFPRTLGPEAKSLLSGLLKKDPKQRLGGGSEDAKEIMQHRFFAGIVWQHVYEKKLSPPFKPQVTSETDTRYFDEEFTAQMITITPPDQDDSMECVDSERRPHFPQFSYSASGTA

Structure (SMILES)	IC50 (AKT1 aa1-480) [nM]	IC50 (CDK1/CycA2) [nM]	IC50 (CDK1/CycE1) [nM]	IC50 (CDK12wt/CycK) [nM]	IC50 (CDK19/CycC) [nM]	IC50 (CDK3/CycE1) [nM]	IC50 (CDK4/CycD1) [nM]	IC50 (CDK4/CycD3) [nM]	IC50 (CDK5/p25NCK) [nM]	IC50 (CDK5/p35NCK) [nM]	IC50 (CDK6/CycD1) [nM]	IC50 (CDK6/CycD3) [nM]	IC50 (CDK9/CycT1) [nM]	IC50 (PCTAIRE1/CycY) [nM]	GI50 [1] [nM]	GI50 [2, 11] [nM]	GI50 [2, 12] [nM]	GI50 [3] [nM]	GI50 [4] [nM]	solubility kinetic [5] [µM]	further results
CC(O)CCC1CCN(c2ccc(Nc3ncc4ccc(=O)n([C@@H]5CC6CCC5C6)c4n3)cc2)CC1 (stereo partly drawn) [PS004, 8-((2R)-bicyclo[2.2.1]heptan-2-yl)-2-((4-(4-(3-hydroxybutyl)piperidin-1-yl)phenyl)amino)pyrido[2,3-d]pyrimidin-7(8H)-one]	> 50000	14500	3320	923	9600	654	35.3	123	4410	1670	27.4	442	264	13500	1400	3600	3500	3000	11500	< 1	microsomal CLint [6]: 40.8 µL/min/mg; half-life [6]: 34 min; microsomal CLint [7]: 54.5 µL/min/mg; half-life [7]: 25.4 min; Papp [8]: < 0.44 ×10⁻⁶ cm/s; Permeability Caco-2 cells: Permeability, grade in words (Caco-2 cells): (low); suppression of cell proliferation [9]: inhibited cell growth with high potential; Summary: permeability [10]: Low; Summary: solubility [10]: Insoluble,; Summary: stability [10]: Stable
CC(=O)c1c(C)c2cnc(Nc3ccc(N4CCC(CCCO)CC4)cc3)nc2n(C2CCCC2)c1=O [PS009, 6-acetyl-8-cyclopentyl-2-((4-(4-(3-hydroxypropyl)piperidin-1-yl)phenyl)amino)-5-methylpyrido[2,3-d]pyrimidin-7(8H)-one]	> 50000	> 50000	19700	17400	36400	17100	26	55.4	4850	1860	13	125	193	> 50000	1550	3000	3300	3900	8000	< 1	microsomal CLint [6]: 33 µL/min/mg; half-life [6]: 42 min; microsomal CLint [7]: 46.9 µL/min/mg; half-life [7]: 29.5 min; Papp [8]: < 0.43 ×10⁻⁶ cm/s; Permeability Caco-2 cells: Permeability, grade in words (Caco-2 cells): (low); Summary: permeability [10]: Low; Summary: solubility [10]: insoluble; also recorded: Insoluble,
O=c1ccc2cnc(Nc3ccc(N4CCC(CCCO)CC4)cc3F)nc2n1[C@@H]1CC2CCC1C2 (stereo partly drawn) [PS002, 8-((2R)-bicyclo[2.2.1]heptan-2-yl)-2-((2-fluoro-4-(4-(3-hydroxypropyl)piperidin-1-yl)phenyl)amino)pyrido[2,3-d]pyrimidin-7(8H)-one]	> 50000	34000	14600	28400	24900	17200	1270	3840	> 50000	38600	485	12600	8070	> 50000	18000	35200	–	–	–	–	suppression of cell proliferation [9]: exception
CC(O)COC1CCN(c2ccc(Nc3ncc4ccc(=O)n([C@@H]5CC6CCC5C6)c4n3)cc2)CC1 (stereo partly drawn) [PS006, 8-((2R)-bicyclo[2.2.1]heptan-2-yl)-2-((4-(4-(2-hydroxypropoxy)piperidin-1-yl)phenyl)amino)pyrido[2,3-d]pyrimidin-7(8H)-one]	> 50000	4280	1210	1010	4130	306	18.9	46.6	1460	771	12.5	108	264	3840	190	1400	1700	2500	2200	< 1	microsomal CLint [6]: 119 µL/min/mg; half-life [6]: 11.6 min; microsomal CLint [7]: 185 µL/min/mg; half-life [7]: 7.5 min; Papp [8]: 4.62 ×10⁻⁶ cm/s; Permeability Caco-2 cells: Efflux, grade in words (Caco-2 cells): (poor); Permeability Caco-2 cells: Permeability, grade in words (Caco-2 cells): (high); suppression of cell proliferation [9]: potent cell growth inhibition; Summary: efflux [10]: permeable/No; Summary: permeability [10]: High; Summary: solubility [10]: insoluble; also recorded: Insoluble,; Summary: stability [10]: highly unstable
